Counter-ions that a name gives are not always drawn.

In the first test the target is T1, haematopoietic prostaglandin D synthase (H-PGDS) (Homo sapiens, UniProt O60760).
T1 construct: Full length human H-PGDS cDNA (Invitrogen Ultimate ORF IOH13026) was amplified by PCR; made in house; host or cells: E. coli BL21 (DE3*), vector pET22b+
T1 sequence (O60760 whole entry): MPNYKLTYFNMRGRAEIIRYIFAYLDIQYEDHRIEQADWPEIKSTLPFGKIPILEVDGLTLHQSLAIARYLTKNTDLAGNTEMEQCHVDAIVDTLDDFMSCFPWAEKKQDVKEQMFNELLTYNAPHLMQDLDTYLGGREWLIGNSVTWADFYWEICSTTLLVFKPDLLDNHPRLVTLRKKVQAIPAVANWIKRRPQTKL
The experiment in a line: H-PGDS RapidFire High Throughput Mass Spectrometry Assay. In kind it is biochemical. The settings on record: H-PGDS RapidFire MS assay, mean pIC50; read-out: Potency Range (mean pIC50) (converted). As to the method:
The H-PGDS RapidFire™ mass spectrometric assay monitors conversion of prostaglandin H2 (PGH2) to prostaglandin D2 (PGD2) by haematopoietic prostaglandin D synthase (H-PGDS). In the assay format described here, the substrate (PGH2) is formed in situ by the action of cyclooxygenase-2 on arachidonic acid. This first step is set up to be fast, and generates a burst of PGH2 at ˜10 μM. The PGH2 is then further converted to PGD2 by the H-PGDS enzyme. […] Plates are then read on the RapidFire™ high throughput solid phase extraction system (Agilent) which incorporates a solid phase extraction step coupled to a triple quadrupole mass spectrometer (AB SCIEX). Relative levels of PGD2 and PGF2α, which acts as a surrogate for substrate, are measured and a percent conversion calculated.
Full length human H-PGDS cDNA (Invitrogen Ultimate ORF IOH13026) was amplified by PCR with the addition of a 5′ 6-His tag and TEV protease cleavage site. The PCR product was digested with Ndel and Xhol and ligated into pET22b+ (Merck Novagen®). Expression was carried out in E. coli strain BL21 (DE3*) using auto-induction Overnight Express™ Instant TB medium (Merck Novagen®) supplemented with 1% glycerol. The culture was first grown at 37° C. and the temperature was reduced to 25° C. when OD600 reached 2.0. Cells were harvested by centrifugation after a further 18 hr. 10 g of E. coli cell pellet was suspended to a total volume of 80 mL in lysis buffer (20 mM Tris-Cl pH 7.5, 300 mM NaCl, 20 mM imidazole, 5 mM β-mercaptoethanol, 10% glycerol). 1 mg/mL protease inhibitors (Protease Inhibitor Cocktail Set Ill, Merck Calbiochem®) and 1 mg/mL lysozyme were added to the cell suspension. The suspension was then sonicated for 5 min (UltraSonic Processor VCX 750, Cole-Parmer Instrument Co.) with a micro probe (50% amplitude, 10 sec on/off) and then centrifuged at 100,000 g for 90 min (at 4° C.). The supernatant was loaded onto a Ni-NTA HiTrap column (5 mL, GE Heathcare, pre-equilibrated in lysis buffer). The column was washed with 10 column volumes of lysis buffer and eluted with lysis buffer containing 500 mM imidazole. The pooled protein peak fractions were concentrated using a 10 kDa centrifugal filter at 3500 g and 4° C. (Amicon Ultra-15 centrifugal filter unit with Ultracel-10 membrane from Millipore). Further purification of the concentrated protein was carried out using gel filtration chromatography on a HiLoad 26/600 Superdex 75 preparative grade column (GE Healthcare Life Sciences) using 50 mM Tris pH 7.5, 50 mM NaCl, 1 mM dithiothreitol, 1 mM MgCl2. Fractions containing the protein were pooled, concentrated as described above, and stored at −80° C.
The full length human COX-2 gene (accession number L15326) was amplified by PCR to generate an EcoRI-HindIII fragment containing an in-frame FLAG tag. This was subcloned into pFastBac 1 (Invitrogen). The COX2 FLAG plasmid was recombined into the baculovirus genome according to the BAC-to-BAC protocol described by Invitrogen. Transfection into Spodoptera frugiperda (Sf9) insect cells was performed using Cellfectin (Invitrogen), according to the manufacturer's protocol. […] Recombinant virus was added at a Multiplicity of Infection (MOI) of 5 and the culture was allowed to continue for 3 days. Cells were harvested using a continuous feed centrifuge run at 2500 g at a rate of approximately 2 L/min with cooling. The resultant cell slurry was re-centrifuged in pots (2500 g, 20 min, 4° C.) and the cell paste was stored at −80° C. […] The suspension was sonicated in 500 mL batches for 8×5 seconds at 10 u amplitude with the medium tip of an MSE probe sonicator and subsequently incubated at 4° C. for 90 min with gentle stirring. The lysate was centrifuged at 12000 rpm for 45 min at 4° C. in a Sorvall SLA1500 rotor. The supernatant (1400 mL) was added to 420 mL of 20 mM Tris-Cl pH 7.4, 150 mM NaCl, 0.1 mM EDTA to reduce the concentration of n-octyl-β-D-glucopyranoside to 1% w/v.
As to `CC1C[C@H](NC(=O)c2cnc3cc(OC(F)F)c(Cl)cc3c2)C(=O)N1` (mixture of isomers) [Example 133, 6-Chloro-7-(difluoromethoxy)-N-((3S)-5-methyl-2-oxopyrrolidin-3-yl)quinoline-3-carboxamide], the IC50 is 10 to 79.4 nM.

In the case of `CC1CCN1c1cc2ncc(C(=O)N[C@H]3CCNC3=O)cc2cc1F` (mixture of isomers) [Example 171, 6-Fluoro-7-(2-methylazetidin-1-yl)-N—((S)-2-oxopyrrolidin-3-yl)quinoline-3-carboxamide], the IC50 is 10 to 79.4 nM.

Turning to `O=C(N[C@@H]1CC[C@@H](C(O)C(F)(F)F)OC1)c1cnc2cc(OC(F)F)ccc2c1` (mixture of isomers) [Example 17, Racemic 7-(Difluoromethoxy)-N-((3R,6S)-6-(2,2,2-trifluoro-1-hydroxyethyl)tetrahydro-2H-pyran-3-yl)quinoline-3-carboxamide], the IC50 is 10 to 79.4 nM.

`CC(C)(O)[C@@H]1CC[C@@H](NC(=O)c2cnc3cc(OC(F)F)ccc3c2)CO1` (racemic) [Example 22, Racemic 7-(Difluoromethoxy)-N-((3s,6r)-6-(2-hydroxypropan-2-yl)tetrahydro-2H-pyran-3-yl)quinoline-3-carboxamide]: the IC50 is 10 to 79.4 nM.

In the case of `O=C(NC1CC2(CC(NCC(F)(F)F)C2)C1)c1cnc2cc(OC(F)F)c(F)cc2c1` (racemic) [Example 61, 7-(Difluoromethoxy)-6-fluoro-N-(6-((2,22-trifluoroethyl)amino)spiro[3.3]heptan-2-yl)quinoline-3-carboxamide], the IC50 was 10 to 79.4 nM.

Turning to `CC(NC[C@H]1CC[C@H](NC(=O)c2cnc3cc(OC(F)F)c(F)cc3c2)CC1)C(F)F` (mixture of isomers) [Example 75, 7-(Difluoromethoxy)-N-(trans-4-(((1,1-difluoropropan-2-yl)amino)methyl)cyclohexyl)-6-fluoroquinoline-3-carboxamide], the IC50 was 10 to 79.4 nM.

In the case of `CC(C)(O)[C@@H]1CC[C@@H](NC(=O)c2cnc3cc(OC(F)F)c(Cl)cc3c2)CO1` (racemic) [Example 124, Racemic 6-chloro-7-(difluoromethoxy)-N-((3r,6s)-6-(2-hydroxypropan-2-yl)tetrahydro-2H-pyran-3-yl)quinoline-3-carboxamide], the IC50 is under 10 nM.

Take `CC(N[C@H]1CC[C@H](NC(=O)c2cnc3cc(OC(F)F)c(Cl)cc3c2)CC1)C(F)F` (mixture of isomers) [Example 125, 6-Chloro-7-(difluoromethoxy)-N-(trans-4-((1,1-difluoropropan-2-yl)amino)cyclohexyl)quinoline-3-carboxamide]: the IC50 was under 10 nM.

As to `CN(C)C(=O)[C@@H]1CC[C@@H](NC(=O)c2cnc3cc(OC(F)F)c(Cl)cc3c2)CO1` (racemic) [Example 126, Racemic 6-Chloro-7-(difluoromethoxy)-N-((3r,6s)-6-(dimethylcarbamoyl)tetrahydro-2H-pyran-3-yl)quinoline-3-carboxamide], the IC50 is 10 to 79.4 nM.

As for `C[C@]1(O)CC[C@H](NC(=O)c2cnc3cc(OC(F)F)c(Cl)cc3c2)C1` (racemic) [Example 146, Racemic 6-Chloro-7-(difluoromethoxy)-N-((1S,3S)-3-hydroxy-3-methylcyclopentyl)quinoline-3-carboxamide], the IC50 was 10 to 79.4 nM.

As for `CC(N[C@H]1CC[C@H](NC(=O)c2cnc3cc(OC(F)F)c(Br)cc3c2)CC1)C(F)F` (mixture of isomers) [Example 156, 6-Bromo-7-(difluoromethoxy)-N-(trans-4-((1,1-difluoropropan-2-yl)amino)cyclohexyl)quinoline-3-carboxamide], the IC50 was under 10 nM.

On to `CC1CCN1c1cc2ncc(C(=O)N[C@H]3CC[C@H](C(C)(C)O)CC3)cc2cc1F` (mixture of isomers) [Example 170, 6-Fluoro-N-(trans-4-(2-hydroxypropan-2-yl)cyclohexyl)-7-(2-methylazetidin-1-yl)quinoline-3-carboxamide], for which the IC50 is 10 to 79.4 nM.

Consider `O=C(N[C@H]1CC[C@H]([C@@H](O)C(F)(F)F)CC1)c1cnc2cc(OC(F)F)ccc2c1` (single isomer, unassigned) [Example 20], for which the IC50 was under 10 nM.

With `O=C(N[C@H]1CC[C@H]([C@H](O)C(F)(F)F)CC1)c1cnc2cc(OC(F)F)ccc2c1` (single isomer, unassigned) [Example 21], the IC50 is under 10 nM.

For the compound `O=C(NC1CCNC1=O)c1cnc2cc(OC(F)F)c(Cl)cc2c1` (stereo in doubt) [Example 117, (S)-6-Chloro-7-(difluoromethoxy)-N-(2-oxopyrrolidin-3-yl)quinoline-3-carboxamide, trifluoroacetate], the IC50 was under 10 nM.

On to `CN(C)C(=O)[C@H]1CC[C@H](NC(=O)c2cnc3cc(OC(F)F)ccc3c2)CC1` [Example 5, 7-(Difluoromethoxy)-N-((trans)-4-(dimethylcarbamoyl)cyclohexyl)quinoline-3-carboxamide], for which the IC50 was 10 to 79.4 nM.

Turning to `CS(=O)(=O)N1CCC(NC(=O)c2cnc3cc(OC(F)F)ccc3c2)CC1` [Example 7, 7-(Difluoromethoxy)-N-(1-(methylsulfonyl)piperidin-4-yl)quinoline-3-carboxamide], the IC50 was 10 to 79.4 nM.

As to `Cc1cc(NC(=O)c2cnc3cc(OC(F)F)ccc3c2)[nH]n1` [Example 8, 7-(Difluoromethoxy)-N-(3-methyl-1H-pyrazol-5-yl)quinoline-3-carboxamide], the IC50 was 10 to 79.4 nM.

Turning to `O=C1CC(NC(=O)c2cnc3cc(OC(F)F)ccc3c2)c2ccccc2N1` (stereo not shown) [Example 9, 7-(Difluoromethoxy)-N-(2-oxo-1,2,3,4-tetrahydroquinolin-4-yl)quinoline-3-carboxamide], the IC50 was 10 to 79.4 nM.

For the compound `O=C(Nc1nccs1)c1cnc2cc(OC(F)F)ccc2c1` [Example 10, 7-(Difluoromethoxy)-N-(thiazol-2-yl)quinoline-3-carboxamide], the IC50 was 10 to 79.4 nM.

As for `CC(C)(O)[C@H]1C[C@H](NC(=O)c2cnc3cc(OC(F)F)ccc3c2)C1` [Example 11, 7-(Difluoromethoxy)-N-(trans-3-(2-hydroxypropan-2-yl)cyclobutyl)quinoline-3-carboxamide], the IC50 is 10 to 79.4 nM.

Consider `CC(C)(O)CO[C@H]1CC[C@H](NC(=O)c2cnc3cc(OC(F)F)ccc3c2)CC1` [Example 12, 7-(Difluoromethoxy)-N-(trans-4-(2-hydroxy-2-methylpropoxy)cyclohexyl)quinoline-3-carboxamide], for which the IC50 is 10 to 79.4 nM.

Take `CC(O)[C@H]1CC[C@H](NC(=O)c2cnc3cc(OC(F)F)ccc3c2)CC1` (stereo partly drawn) [Example 13, 7-(Difluoromethoxy)-N-(trans-4-(-1-hydroxyethyl)cyclohexyl)quinoline-3-carboxamide]: the IC50 is 10 to 79.4 nM.

For `O=C(N[C@H]1CC[C@H](C(O)C2CC2)CC1)c1cnc2cc(OC(F)F)ccc2c1` (stereo partly drawn) [Example 14, N-(trans-4-(-Cyclopropyl(hydroxy)methyl)cyclohexyl)-7-(difluoromethoxy)quinoline-3-carboxamide], the IC50 is under 10 nM.

The same test, now with this note: in at least one experimental run; read-out: H-PGDS pIC50 value (converted).
In the case of `O=C(N[C@H]1CC[C@H]([C@@H](O)C(F)(F)F)CC1)c1cnc2cc(OC(F)F)ccc2c1` (single isomer, unassigned) [Example 20], the IC50 is 7.94 nM.
